pIC50: −log10 of the molar value.
The molecules below were run against PI3Kα (Homo sapiens (Human), UniProt P42336) (assay: ADP-Glo Kinase Assay, PI3Kα enzyme activity inhibition). Conditions: not given.
Chain of PI3Kα (P42336 whole entry): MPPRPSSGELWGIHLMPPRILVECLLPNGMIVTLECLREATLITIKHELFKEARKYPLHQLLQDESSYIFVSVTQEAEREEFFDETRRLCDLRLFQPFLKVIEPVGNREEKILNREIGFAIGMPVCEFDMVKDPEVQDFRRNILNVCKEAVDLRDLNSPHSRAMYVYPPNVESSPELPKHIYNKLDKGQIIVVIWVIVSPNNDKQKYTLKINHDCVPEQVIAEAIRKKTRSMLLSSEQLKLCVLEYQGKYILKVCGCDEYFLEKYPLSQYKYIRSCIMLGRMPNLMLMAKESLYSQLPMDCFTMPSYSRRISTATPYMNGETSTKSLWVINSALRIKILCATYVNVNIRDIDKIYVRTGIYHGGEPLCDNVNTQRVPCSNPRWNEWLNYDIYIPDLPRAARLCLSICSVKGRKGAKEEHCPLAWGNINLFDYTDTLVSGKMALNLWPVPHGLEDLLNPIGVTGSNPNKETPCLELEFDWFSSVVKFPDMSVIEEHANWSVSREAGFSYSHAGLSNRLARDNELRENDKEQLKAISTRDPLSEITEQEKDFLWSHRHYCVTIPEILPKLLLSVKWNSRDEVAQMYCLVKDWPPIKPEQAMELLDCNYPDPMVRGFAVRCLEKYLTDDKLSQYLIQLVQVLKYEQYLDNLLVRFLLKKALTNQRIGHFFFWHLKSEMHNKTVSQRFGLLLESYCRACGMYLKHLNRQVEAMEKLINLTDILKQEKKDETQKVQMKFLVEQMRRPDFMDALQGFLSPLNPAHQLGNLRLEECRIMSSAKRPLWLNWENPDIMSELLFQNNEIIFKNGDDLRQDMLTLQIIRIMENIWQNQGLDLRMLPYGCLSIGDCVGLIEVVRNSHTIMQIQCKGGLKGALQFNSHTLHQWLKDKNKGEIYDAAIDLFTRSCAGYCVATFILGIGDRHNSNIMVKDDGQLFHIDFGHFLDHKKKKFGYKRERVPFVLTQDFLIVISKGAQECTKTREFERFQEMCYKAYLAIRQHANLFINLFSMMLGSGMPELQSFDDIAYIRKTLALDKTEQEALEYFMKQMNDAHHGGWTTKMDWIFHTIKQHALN
Chain of PI3Kα (P27986 whole entry partner): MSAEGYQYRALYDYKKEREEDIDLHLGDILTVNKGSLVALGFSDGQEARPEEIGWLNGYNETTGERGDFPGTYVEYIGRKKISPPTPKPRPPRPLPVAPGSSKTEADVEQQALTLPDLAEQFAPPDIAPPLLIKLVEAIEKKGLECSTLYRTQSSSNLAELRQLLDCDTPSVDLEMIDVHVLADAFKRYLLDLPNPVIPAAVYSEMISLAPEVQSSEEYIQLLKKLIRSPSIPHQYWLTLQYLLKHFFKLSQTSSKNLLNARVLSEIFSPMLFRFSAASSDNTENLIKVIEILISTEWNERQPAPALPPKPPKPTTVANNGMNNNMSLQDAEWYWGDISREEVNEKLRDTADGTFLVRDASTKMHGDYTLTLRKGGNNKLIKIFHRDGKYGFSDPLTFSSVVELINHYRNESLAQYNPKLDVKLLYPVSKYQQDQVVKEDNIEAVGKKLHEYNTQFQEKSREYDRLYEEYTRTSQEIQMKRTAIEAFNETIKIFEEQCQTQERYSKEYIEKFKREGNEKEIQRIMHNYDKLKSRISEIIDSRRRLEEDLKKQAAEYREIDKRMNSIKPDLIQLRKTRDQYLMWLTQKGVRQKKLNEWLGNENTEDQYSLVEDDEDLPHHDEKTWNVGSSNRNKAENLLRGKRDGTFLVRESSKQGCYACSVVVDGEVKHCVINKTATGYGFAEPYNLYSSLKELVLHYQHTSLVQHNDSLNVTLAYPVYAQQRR

Compound	PI3Kaα IC50
CCn1nc2ccc(NC(=O)c3cc(F)cc(C(F)(F)F)c3)c3c2c1C(=O)NC3c1cc(F)ccc1Cl (stereo not drawn) [YL115]	+++ (key: +represents IC50<=250 nM; ++ represents 250 nM<IC50<=10 μM; +++ represents IC50>10 μM)

Same assay, conditions: ADP-Glo; ATP 25 μM; PIP2 50 μg/mL; 1 hour at room temperature

Compound	PI3Kaα IC50
N#Cc1c(-c2cc(NC(=O)c3cc(F)cc(C(F)(F)F)c3)c3c4c2CCN4C(=O)NC3c2cc(F)ccc2Cl)ccc2[nH]ncc12 (stereo not drawn) [YL142]	+++ (+++ represents IC50>10 μM)
O=C(Nc1cc(-c2ccn[nH]2)c2c3c1C(c1cc(F)ccc1Cl)NC(=O)N3CC2)c1cc(F)cc(C(F)(F)F)c1 (stereo not drawn) [YL054]	++ (++ represents 250 nM<IC50<=10 μM)
O=C(Nc1cc(Br)c2c3c1C(c1ccccc1Cl)NC(=O)N3CC2)c1cc(F)cc(C(F)(F)F)c1 (stereo not drawn) [YL066]	+++ (+++ represents IC50>10 μM)
Cn1nc2c(-c3cn[nH]c3F)cc(NC(=O)c3cc(F)cc(C(F)(F)F)c3)c3c2c1C(=O)NC3c1cc(F)ccc1Cl (stereo not drawn) [YL113]	+++ (+++ represents IC50>10 μM)
O=C(Nc1cc(-c2cnc3[nH]cnc3c2Cl)c2c3c1C(c1cc(F)ccc1Cl)NC(=O)N3CC2)c1cc(F)cc(C(F)(F)F)c1 (stereo not drawn) [YL147]	+++ (+++ represents IC50>10 μM)
O=C(Nc1cc(NC2CC2)c2c3c1C(c1cc(F)ccc1Cl)NC(=O)N3CC2)c1cc(F)cc(C(F)(F)F)c1 (stereo not drawn) [YL022]	++ (++ represents 250 nM<IC50<=10 μM)
Nc1cc(-c2cc(Nc3nccc4c(C(F)(F)F)cc(F)cc34)c3c4c2CCN4C(=O)NC3c2cc(F)ccc2Cl)n[nH]1 (stereo not drawn) [YL044]	++ (++ represents 250 nM<IC50<=10 μM)
Nc1n[nH]c2ccc(-c3cc(NC(=O)c4cc(F)cc(C(F)(F)F)c4)c4c5c3CCN5C(=O)NC4c3cc(F)ccc3Cl)cc12 (stereo not drawn) [YL013]	++ (++ represents 250 nM<IC50<=10 μM)
O=C1NC(c2cc(F)ccc2Cl)c2c(Nc3nccc4c(C(F)(F)F)cc(F)cc34)ccc3c2N1CC3 (stereo not drawn) [YL050]	++ (++ represents 250 nM<IC50<=10 μM)
C#Cc1cc(NC(=O)c2cc(F)cc(C(F)(F)F)c2)c2c3c1CCN3C(=O)NC2c1cc(F)ccc1Cl (stereo not drawn) [YL069]	+++ (+++ represents IC50>10 μM)
O=C(Nc1cc(Nc2cnn(C3CCOCC3)c2)c2c3c1C(c1cc(F)ccc1Cl)NC(=O)N3CC2)c1cc(F)cc(C(F)(F)F)c1 (stereo not drawn) [YL023]	++ (++ represents 250 nM<IC50<=10 μM)
N#Cc1ccc(-c2cc(NC(=O)c3cc(F)cc(C(F)(F)F)c3)c3c4c2CCN4C(=O)NC3c2cc(Cl)ccc2Cl)c(N)n1 (stereo not drawn) [YL130]	+++ (+++ represents IC50>10 μM)
Cc1nc[nH]c1-c1cc(NC(=O)c2cc(F)cc(C(F)(F)F)c2)c2c3c1CCN3C(=O)NC2c1cc(F)ccc1Cl (stereo not drawn) [YL068]	++ (++ represents 250 nM<IC50<=10 μM)
O=C(Nc1cc(-c2ccc3ncnn3c2)c2c3c1C(c1cc(F)ccc1Cl)NC(=O)N3CC2)c1cc(F)cc(C(F)(F)F)c1 (stereo not drawn) [YL128]	+++ (+++ represents IC50>10 μM)
Nc1cc(-c2cc(NC(=O)c3cc(F)cc(C(F)(F)F)c3)c3c4c2CCN4C(=O)NC3c2cc(F)ccc2Cl)[nH]n1 (stereo not drawn) [YL053]	++ (++ represents 250 nM<IC50<=10 μM)
O=C(Nc1cc(-c2cn[nH]c2C(F)(F)F)c2c3c1C(c1cc(F)ccc1Cl)NC(=O)N3CC2)c1cc(F)cc(C(F)(F)F)c1 (stereo not drawn) [YL071]	++ (++ represents 250 nM<IC50<=10 μM)
N#Cc1cc(N)ccc1-c1cc(NC(=O)c2cc(F)cc(C(F)(F)F)c2)c2c3c1CCN3C(=O)NC2c1cc(F)ccc1Cl (stereo not drawn) [YL150]	++ (++ represents 250 nM<IC50<=10 μM)
N#Cc1ncncc1-c1cc(NC(=O)c2cc(F)cc(C(F)(F)F)c2)c2c3c1CCN3C(=O)NC2c1cc(F)ccc1Cl (stereo not drawn) [YL141]	+++ (+++ represents IC50>10 μM)
O=C(Nc1cc(Br)c2c3c1C(c1ccccc1)NC(=O)N3CC2)c1cc(F)cc(C(F)(F)F)c1 (stereo not drawn) [YL064]	+++ (+++ represents IC50>10 μM)
O=C(Nc1cc(F)c2c3c1C(c1cc(F)ccc1Cl)NC(=O)N3CC2)c1cc(F)cc(C(F)(F)F)c1 (stereo not drawn) [YL021]	++ (++ represents 250 nM<IC50<=10 μM)
O=C(Nc1cc(-c2cnoc2)c2c3c1C(c1cc(F)ccc1Cl)NC(=O)N3CC2)c1cc(F)cc(C(F)(F)F)c1 (stereo not drawn) [YL018]	++ (++ represents 250 nM<IC50<=10 μM)

Compound	PI3Kaα IC50
N#Cc1nc(F)ncc1-c1cc(NC(=O)c2cc(F)cc(C(F)(F)F)c2)c2c3c1CCN3C(=O)NC2c1cc(F)ccc1Cl (stereo not drawn) [YL143]	+++ (+++ represents IC50>10 μM)
C[C@@H](O)C(=O)Nc1cc(NC(=O)c2cc(F)cc(C(F)(F)F)c2)c2c3c1CCN3C(=O)NC2c1cc(F)ccc1Cl (stereo partly drawn) [YL031]	+++ (+++ represents IC50>10 μM)
C#Cc1c(-c2cc(NC(=O)c3cc(F)cc(C(F)(F)F)c3)c3c4c2CCN4C(=O)NC3c2cc(F)ccc2Cl)ccc2ncnn12 (stereo not drawn) [YL140]	+++ (+++ represents IC50>10 μM)
O=C1NC(c2cc(F)ccc2Cl)c2c(Nc3nccc4c(C(F)(F)F)cc(F)cc34)cc(Br)c3c2N1CC3 (stereo not drawn) [YL042]	++ (++ represents 250 nM<IC50<=10 μM)
N#Cc1c(N)cccc1-c1cc(NC(=O)c2cc(F)cc(C(F)(F)F)c2)c2c3c1CCN3C(=O)NC2c1cc(F)ccc1Cl (stereo not drawn) [YL133]	+++ (+++ represents IC50>10 μM)
N#Cc1cc(N)ncc1-c1cc(NC(=O)c2cc(F)cc(C(F)(F)F)c2)c2c3c1CCN3C(=O)NC2c1cc(F)ccc1Cl (stereo not drawn) [YL152]	+++ (+++ represents IC50>10 μM)
[N-]=[N+]=Nc1cc(NC(=O)c2cc(F)cc(C(F)(F)F)c2)c2c3c1CCN3C(=O)NC2c1cc(F)ccc1Cl (stereo not drawn) [YL011]	++ (++ represents 250 nM<IC50<=10 μM)
O=C(Nc1cc(-c2ccc3ncnn3c2F)c2c3c1C(c1cc(F)ccc1Cl)NC(=O)N3CC2)c1cc(F)cc(C(F)(F)F)c1 (stereo not drawn) [YL129]	+++ (+++ represents IC50>10 μM)
O=C(Nc1cc(NC2CCOCC2)c2c3c1C(c1cc(F)ccc1Cl)NC(=O)N3CC2)c1cc(F)cc(C(F)(F)F)c1 (stereo not drawn) [YL028]	++ (++ represents 250 nM<IC50<=10 μM)
Nc1cc(NC(=O)c2cc(F)cc(C(F)(F)F)c2)c2c3c1CCN3C(=O)NC2c1cccc2ccccc12 (stereo not drawn) [YL060]	+++ (+++ represents IC50>10 μM)
O=C(Nc1cc(NC2COC2)c2c3c1C(c1cc(F)ccc1Cl)NC(=O)N3CC2)c1cc(F)cc(C(F)(F)F)c1 (stereo not drawn) [YL027]	++ (++ represents 250 nM<IC50<=10 μM)
N#Cc1c(N)cccc1-c1cc(NC(=O)c2cc(F)cc(C(F)(F)F)c2)c2c3c1CCN3C(=O)NC2c1cc(Cl)ccc1Cl (stereo not drawn) [YL132]	+++ (+++ represents IC50>10 μM)
O=C(Nc1cc(N2CC(F)(F)C2)c2c3c1C(c1cc(F)ccc1Cl)NC(=O)N3CC2)c1cc(F)cc(C(F)(F)F)c1 (stereo not drawn) [YL012]	++ (++ represents 250 nM<IC50<=10 μM)
C[C@H](O)C(=O)Nc1cc(NC(=O)c2cc(F)cc(C(F)(F)F)c2)c2c3c1CCN3C(=O)NC2c1cc(F)ccc1Cl (stereo partly drawn) [YL030]	+++ (+++ represents IC50>10 μM)
O=C(Nc1cc(Br)c2c3c1C(c1cccc(F)c1)NC(=O)N3CC2)c1cc(F)cc(C(F)(F)F)c1 (stereo not drawn) [YL062]	+++ (+++ represents IC50>10 μM)
N#Cc1nc(N)ncc1-c1cc(NC(=O)c2cc(F)cc(C(F)(F)F)c2)c2c3c1CCN3C(=O)NC2c1cc(F)ccc1Cl (stereo not drawn) [YL137]	+++ (+++ represents IC50>10 μM)
COc1c(-c2cc(NC(=O)c3cc(F)cc(C(F)(F)F)c3)c3c4c2CCN4C(=O)NC3c2cc(F)ccc2Cl)ccc2ncnn12 (stereo not drawn) [YL146]	+++ (+++ represents IC50>10 μM)
O=C(Nc1cc(F)cc(C(F)(F)F)c1)Nc1cc(Br)c2c3c1C(c1cc(F)ccc1Cl)NC(=O)N3CC2 (stereo not drawn) [YL122]	+++ (+++ represents IC50>10 μM)
N#Cc1cc2ncnn2cc1-c1cc(NC(=O)c2cc(F)cc(C(F)(F)F)c2)c2c3c1CCN3C(=O)NC2c1cc(F)ccc1Cl (stereo not drawn) [YL153]	+++ (+++ represents IC50>10 μM)
Cc1cc(-c2cc(NC(=O)c3cc(F)cc(C(F)(F)F)c3)c3c4c2CCN4C(=O)NC3c2cc(F)ccc2Cl)n[nH]1 (stereo not drawn) [YL070]	+++ (+++ represents IC50>10 μM)
Cn1cc(-c2cc(NC(=O)c3cc(F)cc(C(F)(F)F)c3)c3c4c2CCN4C(=O)NC3c2cc(F)ccc2Cl)cn1 (stereo not drawn) [YL015]	++ (++ represents 250 nM<IC50<=10 μM)

Same assay, conditions: PI3Kaα IC50

Compound	pIC50
Nc1cc(NC(=O)c2cc(F)cc(C(F)(F)F)c2)c2c3c1CCN3C(=O)NC2c1cc(F)ccc1C(F)(F)F (stereo not drawn) [YL096]	5.00 to 6.60

Same assay, conditions: PI3Kaα IC50, ADP-Glo; ATP 25 μM; PIP2 50 μg/mL; 1 hour at room temperature

Compound	pIC50
O=C(Nc1cc(Br)c2c3c1C(c1cc(Cl)ccc1Cl)NC(=O)N3CC2)c1cc(F)cc(C(F)(F)F)c1 (stereo not drawn) [YL093]	5.00 to 6.60
O=C(Nc1cc(O)c2c3c1C(c1cc(F)ccc1Cl)NC(=O)N3CC2)c1cc(F)cc(C(F)(F)F)c1 (stereo not drawn) [YL076]	5.00 to 6.60
N#Cc1cc(NC(=O)c2cc(F)cc(C(F)(F)F)c2)c2c3c1CCN3C(=O)NC2c1cc(Cl)ccc1Cl (single isomer, unassigned) [YL101-P1]	< 5.00
O=C(Nc1cc(Br)c2c3c1C(c1cc(F)ccc1Cl)NC(=O)N3CC2)c1cc(F)cc(C(F)(F)F)c1 (single isomer, unassigned) [YL079-P2]	5.00 to 6.60
Nc1cc(NC(=O)c2cc(F)cc(C(F)(F)F)c2)c2c3c1CCN3C(=O)NC2c1cc(Cl)ccc1Cl (stereo not drawn) [YL094]	5.00 to 6.60
Nc1cc(Nc2nccc3c(C(F)(F)F)cc(F)cc23)c2c3c1CCN3C(=O)NC2c1cc(F)ccc1Cl (stereo not drawn) [YL086]	5.00 to 6.60
Cn1nc2c(C#N)cc(NC(=O)c3cc(F)cc(C(F)(F)F)c3)c3c2c1C(=O)NC3c1cc(F)ccc1Cl (single isomer, unassigned) [YL102-P2]	< 5.00
O=C(Nc1cc(-c2c[nH]cn2)c2c3c1C(c1cc(F)ccc1Cl)NC(=O)N3CC2)c1cc(F)cc(C(F)(F)F)c1 (stereo not drawn) [YL074]	5.00 to 6.60
Nc1cc(-c2nc3c(F)cc(C(F)(F)F)cc3[nH]2)c2c3c1CCN3C(=O)NC2c1cc(F)ccc1Cl (stereo not drawn) [YL092]	5.00 to 6.60
Nc1n[nH]cc1-c1cc(NC(=O)c2cc(F)cc(C(F)(F)F)c2)c2c3c1CCN3C(=O)NC2c1cc(F)ccc1Cl (stereo not drawn) [YL073]	5.00 to 6.60
O=C(Nc1cc(Br)c2c3c1C(c1cc(F)ccc1Cl)NC(=O)N3CC2)c1cc(F)cc(C(F)(F)F)c1 (single isomer, unassigned) [YL079-P1]	< 5.00
N=C(N)Nc1cc(NC(=O)c2cc(F)cc(C(F)(F)F)c2)c2c3c1CCN3C(=O)NC2c1cc(F)ccc1Cl (stereo not drawn) [YL088]	5.00 to 6.60
Cn1nc2c(C#N)cc(NC(=O)c3cc(F)cc(C(F)(F)F)c3)c3c2c1C(=O)NC3c1cc(Cl)ccc1Cl (single isomer, unassigned) [YL111-P2]	< 5.00
